According to publication PMC8050083, “Naturally-occurring spinosyn A and its derivatives function as argininosuccinate synthase activator and tumor inhibitor” (Nature Communications, 2021):
Where two headings read alike, the source gives them in different places.

How the values were obtained:
[1] = biological target: T1, Argininosuccinate synthase (ASS1) (Homo sapiens, UniProt P00966); experiment: SPR (BIAcore X100); also LC-MS/MS of Cys97 adduct, competition with Biotin-SPA, enzyme activation (AC50 […]); assay type: binding
T1 construct: recombinant human ASS1, N-terminal 6×His tag (pET28a), NM_000050
T1 sequence (P00966 1-412): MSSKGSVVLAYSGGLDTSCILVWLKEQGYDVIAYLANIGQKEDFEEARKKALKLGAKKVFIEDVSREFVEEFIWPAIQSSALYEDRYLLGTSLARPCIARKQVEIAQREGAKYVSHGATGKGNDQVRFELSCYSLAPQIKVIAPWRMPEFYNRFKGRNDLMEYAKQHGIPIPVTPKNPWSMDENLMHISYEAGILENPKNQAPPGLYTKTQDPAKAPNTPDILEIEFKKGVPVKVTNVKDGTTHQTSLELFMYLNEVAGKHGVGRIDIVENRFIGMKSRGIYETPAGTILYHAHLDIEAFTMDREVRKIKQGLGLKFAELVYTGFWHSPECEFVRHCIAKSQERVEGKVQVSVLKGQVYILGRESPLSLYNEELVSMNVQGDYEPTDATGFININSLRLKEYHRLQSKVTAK

[2] = biological target: T1, Argininosuccinate synthase (ASS1); experiment: covalent labelling kinetics by streptavidin-HRP blot (kinact […] min^-1); pull-down from MCF-7 lysate; assay type: binding; details: read-out: Ki
[3] = biological target: T1, Argininosuccinate synthase (ASS1); experiment: SPR (BIAcore X100); also LC-MS/MS of Cys97 adduct, competition with Biotin-SPA, enzyme activation (AC50 […]); assay type: binding; remark: listed apart in the source
BT20 = experiment: cells; set-up: crystal violet staining viability/proliferation assay, IC50 (SPSS), LM-2I on breast cancer and normal breast epithelial lines; details: Homo sapiens, BT-20; mean of 3 repeats
Experimental: (§1) Fig. 1 SPA and its derivative LM-2I inhibit breast cancer proliferation and growth. a Chemical structures of SPA (1). b Crystal violet assay for the effects of SPA on breast cancer cell proliferation. IC50 values were calculated with SPSS 18.0 (mean ± s.d., n = 3 biologically independent experiments). c Representative microscope images of colony formation for different breast cancer cell lines treated with SPA. Scale bars are […]. d Chemical structures of LM-2I (2). e Crystal violet assay for the effects of LM-2I on breast cancer cell proliferation. IC50 values were calculated with SPSS 18.0 (mean ± s.d., n = 3 biologically independent experiments). f Representative microscope images of colony formation for different breast cancer cell lines treated with LM-2I. Scale bars are […]. MDA-MB-231 cells were inoculated subcutaneously into the right flank of nu/nu female mice. When the average tumor size reached about 100 mm^3, mice were treated with ether vehicle, SPA (10 mg/kg/day) or LM-2I (5 mg/kg/day). Tumor sizes (g) and mouse body weight (i) were measured every 2 days. 28 days later, mice were sacrificed and tumors were dissected and weighted (h). Data represent mean ± s.d. (n = 8 mice per group). *P < 0.05, ***P < 0.001, NS: not significant (P > 0.05) from two-tailed unpaired Student’s t tests.Source data are provided as a Source Data file. All cell lines were purchased from American Type Culture Collection (ATCC, Manassas, VA, USA). The human breast cancer (BC) cell lines BT549, BT474 and T47D were maintained in RPMI 1640 containing 10% (v/v) fetal bovine serum (FBS, Gibco), 0.01 mg/mL insulin and 100 units/mL penicillin/streptomycin (HyClone). SKBR3, Hs578T, and BT20 human BC cell lines were cultured in DMEM medium with 10% (v/v) FBS and 100 units/mL penicillin/streptomycin. HCC1500, HCC1806, and HCC1937 human BC cell lines were cultured in RPMI 1640 medium supplement with 10% (v/v) FBS and 100 units/mL penicillin/streptomycin. MDA-MB-231 human BC cell line was cultured in DMEM/F12 (1: 1) medium with 10% (v/v) FBS and 100 units/mL penicillin/streptomycin. MDA-MB-468 human BC cell line was cultured in DMEM (high glucose) medium with 10% (v/v) FBS and 100 units/mL penicillin/streptomycin. MCF-7 human BC cell line was cultured in EMEM medium with 10% (v/v) FBS, 0.01 mg/mL insulin and 100 units/mL penicillin/streptomycin. […] All of the cells cultured in a humidified incubator at 37 °C and 5% CO2/95% air (v/v).

BT474 = experiment: cells; set-up: crystal violet staining viability/proliferation assay, IC50 (SPSS), LM-2I on breast cancer and normal breast epithelial lines; details: Homo sapiens, BT-474; mean of 3 repeats
Experimental: as §1

BT549 = experiment: cells; set-up: crystal violet staining viability/proliferation assay, IC50 (SPSS), LM-2I on breast cancer and normal breast epithelial lines; details: Homo sapiens, BT-549; mean of 3 repeats
Experimental: as §1

HCC1500 = experiment: cells; set-up: crystal violet staining viability/proliferation assay, IC50 (SPSS), LM-2I on breast cancer and normal breast epithelial lines; details: HCC1500; mean of 3 repeats
Experimental: as §1

HCC1806 = experiment: cells; set-up: crystal violet staining viability/proliferation assay, IC50 (SPSS), LM-2I on breast cancer and normal breast epithelial lines; details: Homo sapiens, HCC1806; mean of 3 repeats
Experimental: as §1

HCC1937 = experiment: cells; set-up: crystal violet staining viability/proliferation assay, IC50 (SPSS), LM-2I on breast cancer and normal breast epithelial lines; details: Homo sapiens, HCC1937; mean of 3 repeats
Experimental: as §1

HS578T = experiment: cells; set-up: crystal violet staining viability/proliferation assay, IC50 (SPSS), LM-2I on breast cancer and normal breast epithelial lines; details: Homo sapiens, Hs-578T; mean of 3 repeats
Experimental: as §1

MCF-7 = experiment: cells; set-up: crystal violet staining viability/proliferation assay, IC50 (SPSS), LM-2I on breast cancer and normal breast epithelial lines; details: Homo sapiens, MCF7; mean of 3 repeats
Experimental: as §1

MDA-MB-231 = experiment: cells; set-up: crystal violet staining viability/proliferation assay, IC50 (SPSS), LM-2I on breast cancer and normal breast epithelial lines; details: Homo sapiens, MDA-MB-231; mean of 3 repeats
Experimental: as §1

MDA-MB-468 = experiment: cells; set-up: crystal violet staining viability/proliferation assay, IC50 (SPSS), LM-2I on breast cancer and normal breast epithelial lines; details: Homo sapiens, MDA-MB-468; mean of 3 repeats
Experimental: as §1

SKBR3 = experiment: cells; set-up: crystal violet staining viability/proliferation assay, IC50 (SPSS), LM-2I on breast cancer and normal breast epithelial lines; details: Homo sapiens, SK-BR-3; mean of 3 repeats
Experimental: as §1

T47D = experiment: cells; set-up: crystal violet staining viability/proliferation assay, IC50 (SPSS), LM-2I on breast cancer and normal breast epithelial lines; details: Homo sapiens, T47D; mean of 3 repeats
Experimental: as §1

in vitro = experiment: in vitro; set-up: crystal violet staining viability/proliferation assay, IC50 (SPSS), LM-2I on breast cancer and normal breast epithelial lines; details: human, Mean; mean of 3 repeats; given as IC50
Experimental: (§2) Fig. 1 SPA and its derivative LM-2I inhibit breast cancer proliferation and growth. a Chemical structures of SPA (1). b Crystal violet assay for the effects of SPA on breast cancer cell proliferation. IC50 values were calculated with SPSS 18.0 (mean ± s.d., n = 3 biologically independent experiments). c Representative microscope images of colony formation for different breast cancer cell lines treated with SPA. Scale bars are 40 µM. d Chemical structures of LM-2I (2). e Crystal violet assay for the effects of LM-2I on breast cancer cell proliferation. IC50 values were calculated with SPSS 18.0 (mean ± s.d., n = 3 biologically independent experiments). f Representative microscope images of colony formation for different breast cancer cell lines treated with LM-2I. Scale bars are 40 µM. MDA-MB-231 cells were inoculated subcutaneously into the right flank of nu/nu female mice. When the average tumor size reached about 100 mm^3, mice were treated with ether vehicle, SPA (10 mg/kg/day) or LM-2I (5 mg/kg/day). Tumor sizes (g) and mouse body weight (i) were measured every 2 days. 28 days later, mice were sacrificed and tumors were dissected and weighted (h). Data represent mean ± s.d. (n = 8 mice per group). *P < 0.05, ***P < 0.001, NS: not significant (P > 0.05) from two-tailed unpaired Student’s t tests.Source data are provided as a Source Data file. […]

184B5 = experiment: in vitro; set-up: crystal violet staining viability/proliferation assay, IC50 (SPSS), LM-2I on breast cancer and normal breast epithelial lines; details: mean of 3 repeats; given as IC50; inhibitor
Experimental: as §2

## CC[C@H]1CCC[C@H](O[C@H]2CC[C@H](N(C)C)[C@@H](C)O2)[C@@H](C)C(=O)C2=C[C@@H]3[C@@H](C=C[C@@H]4C[C@@H](O[C@@H]5O[C@@H](C)[C@H](OC)[C@@H](OC)[C@H]5OC)C[C@@H]34)[C@@H]2CC(=O)O1 [compound 1, spinosyn A]
[1]
  Kd: 0.358 µM

## CC[C@H]1CCC[C@H](O[C@H]2CC[C@H](N(C)CCCCCCOC(=O)CCCC[C@@H]3SC[C@@H]4NC(=O)N[C@@H]43)[C@@H](C)O2)[C@@H](C)C(=O)C2=C[C@@H]3[C@@H](C=C[C@@H]4C[C@@H](O[C@@H]5O[C@@H](C)[C@H](OC)[C@@H](OC)[C@H]5OC)C[C@@H]34)[C@@H]2CC(=O)O1 [compound 4, Biotin-SPA]
[2]
  KI (inactivation): 9.01 µM

## CC[C@H]1CCC[C@H](O[C@H]2CC[C@H](N(C)CC(O)CN3CCNCC3)[C@@H](C)O2)[C@@H](C)C(=O)C2=C[C@@H]3[C@@H](C=C[C@@H]4C[C@@H](O[C@@H]5O[C@@H](C)[C@H](OC)[C@@H](OC)[C@H]5OC)C[C@@H]34)[C@@H]2CC(=O)O1 (some centres unmarked) [compound 2, LM-2I]
[3]
  Kd: 0.194 µM
BT20
  IC50: 8.22 µM
BT474
  IC50: 6.2 µM
BT549
  IC50: 1.51 µM
HCC1500
  IC50: 10 µM
HCC1806
  IC50: 2.13 µM
HCC1937
  IC50: 7.64 µM
HS578T
  IC50: 1.76 µM
MCF-7
  IC50: 5.94 µM
MDA-MB-231
  IC50: 1.09 µM
MDA-MB-468
  IC50: 5.11 µM
SKBR3
  IC50: 5.12 µM
T47D
  IC50: 5.95 µM
In vitro
  CC50: 8.52 µM
184B5
  CC50: 7.89 µM
